We go through eleven molecules from PubChem BioAssay (NCI).

Holding throughout (test): inhibition of tumour cell growth, NCI panel, 48 h
Experiment [1] has as its system SK-OV-3 ovarian.
The test system of experiment [2] is OVCAR-5 ovarian.
Experiment [3] has as its system COLO 205 colon.
The test system of experiment [4] is 786-0 renal.
The test system of experiment [5] is SNB-78 CNS.
Experiment [6] concerns MALME-3M melanoma.
Experiment [7] concerns CAKI-1 renal.
The subject of experiment [8] is SR leukemia.
Experiment [9] relates to CCRF-CEM leukemia.

SMILES strings stand for the structures. Where “and” joins values, the source holds several entries; their conditions need not be identical. Equal values may be shown once.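 Exposure lasted 48 hours, with cells grown in 96-well plates and compounds tested at five concentrations. Here, GI50 denotes the concentration required for 50% inhibition of growth. TGI marks complete inhibition of growth.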 A value given as a limit tells only on which side of the number the result lay.

Consider `O=S(=O)(c1cccc(N=C=S)c1)c1cccc(N=C=S)c1`, for which the TGI is 37.3 µM in experiment [1]; more than 100 µM in [2]; 38.1 µM in experiment [3]; 29.5 µM in experiment [4]; 63.5 µM in [5]; 34.9 µM in [6].

Take `Cc1cc(C#Cc2ccc(C(C)(C)C)cc2)ccc1-n1c(/C=C/c2ccc(O)cc2O)nc2ccccc2c1=O`: the GI50 in [7] is 2.87 µM; in experiment [1], 10.9 µM; in [2], 4.25 µM; in experiment [3], 3.02 µM; in experiment [4], 5.08 µM; in experiment [8] it was 2.45 µM. In addition, the GI50 in experiment [6] is 8.42 µM; in experiment [9], 3.85 µM. The TGI in experiment [7] stood at 16.2 µM; in [1], 30.6 µM; in experiment [2] it was 16.4 µM; in experiment [3], 9.59 µM; in experiment [4], 17.9 µM; in experiment [8], 6.49 µM. Further, the TGI is 23.2 µM in experiment [6] and more than 100 µM in experiment [9].

On to `COCOCC/C=C/C=O`, for which the TGI in experiment [1], in [2], in [3], in experiment [4], in experiment [5] and in experiment [8] was more than 100 µM throughout. For the same molecule, the TGI in experiment [6] and in [9] was more than 100 µM throughout.

`c1ccc2c(c1)Nc1ccncc1S2`: the GI50 is 11.4 µM in [7]; 37 µM in experiment [1]; 19 µM in [2]; 11.5 µM in experiment [3]; 28.8 µM in [4]; 13.4 µM in experiment [8]. The GI50 in experiment [6] and in experiment [9] was 28.2 µM in each case. Besides, the TGI is 56 µM in [7]; more than 100 µM in experiment [1]; more than 100 µM in experiment [2]; 37.1 µM in [3]; more than 100 µM in experiment [4]; 50.3 µM in experiment [8]. In addition, the results for the TGI in [6] and in experiment [9] were 89.8 µM and more than 100 µM, respectively.

In the case of `C#CCNC(=O)[C@H](CC)[C@H]1CC[C@H](C)[C@H]([C@@H](C)[C@H](O)[C@H](C)C(=O)[C@H](CC)C2O[C@]3(C=CC(=O)[C@]4(CC[C@@](C)([C@H]5CC[C@](O)(CC)[C@H](C)O5)O4)O3)[C@H](C)C[C@@H]2C)O1` (some centres not stated), the GI50 in experiment [7] is 1.78 µM; in [1], 3.42 µM; in [2] it was 2.62 µM; in experiment [3], 1.84 µM; in experiment [4], 2.67 µM; in [8], 1.61 µM. In addition, the values for the GI50 in experiment [6] and in experiment [9] were 2.05 µM and 2.76 µM, respectively. Also, the TGI is 7.02 µM in experiment [7]; more than 100 µM in [1]; 8.16 µM in [2]; 3.52 µM in experiment [3]; 8.19 µM in [4]; 5.37 µM in experiment [8]. For the same molecule, the figures for the TGI in [6] and in experiment [9] were 6.15 µM and 19.3 µM, respectively.

Turning to `Cc1nc(C(=O)O)c2ccccc2n1`, the TGI in experiment [7], in [1], in experiment [2], in experiment [3], in experiment [4] and in experiment [5] was more than 100 µM throughout. Besides, the TGI in experiment [8], in experiment [6] and in experiment [9] was more than 100 µM in each case.

Regarding `COC1=C(OC)C(=O)C(SC/C=C(\C)CCCC(C)CCCC(C)CCCC(C)C)=CC1=O` (configuration not stated), the GI50 in experiment [7] is 6.64 µM; in experiment [1], 2.47 µM; in experiment [2] it was 0.564 µM; in experiment [3] it was 8.49 µM; in experiment [4], 11.2 µM; in experiment [8], 1.09 µM. Moreover, the results for the GI50 in experiment [6] and in [9] were 0.513 µM and 1.19 µM, respectively. The TGI in experiment [7] is more than 37 µM; in experiment [1], more than 91.6 µM; in experiment [2] it was more than 89.7 µM; in experiment [3], more than 100 µM; in experiment [4], more than 100 µM; in [8], more than 100 µM. Moreover, the TGI in [9] is more than 100 µM.

`CCc1cccc(C)c1NC(=O)c1sc2nc3c(cc2c1N)C(=O)CCC3`: the GI50 was 0.537 µM in [7]; 0.541 µM in [1]; 2.74 µM in experiment [2]; 0.35 µM in experiment [3]; 0.734 µM in experiment [4]; 0.501 µM in experiment [8]. For the same molecule, the GI50 in experiment [6] was 0.685 µM; in [9] it was 0.407 µM. Also, the TGI in experiment [7] was more than 100 µM; in [1], more than 100 µM; in experiment [2] it was more than 100 µM; in experiment [3], 1.51 µM; in experiment [4], more than 100 µM; in [8], more than 41.1 µM. In addition, the TGI in experiment [6] is 98.8 µM; in experiment [9] it was more than 35.4 µM.

Regarding `O=c1[nH]cc(F)c(=O)n1C1OC(CO)C(O)C1O` (configuration not stated), the TGI in experiment [7], in experiment [1], in experiment [2], in experiment [3], in experiment [4] and in experiment [5] was more than 100 µM each time. The TGI in experiment [6] and in experiment [9] was more than 100 µM throughout.

On to `O=C1OC(C(O)CO)C(O)=C1O` (configuration not stated), for which the GI50 in [7] was 1880 µM and 2150 µM; in [1], 6030 µM and > 4760 µM; in experiment [2], 1790 µM and 1730 µM; in experiment [3], 2030 µM and 1830 µM; in [4] it was 1790 µM and > 4300 µM; in experiment [8], 349 µM and 292 µM. For the same molecule, the GI50 in experiment [6] is 1540 µM and 1760 µM; in [9], 239 µM and 275 µM. For the same molecule, the TGI was 3350 µM and 4620 µM in experiment [7]; more than 10000 µM in [1]; 3400 µM and 3310 µM in experiment [2]; 3750 µM and 3420 µM in experiment [3]; 3290 µM and > 5710 µM in experiment [4]; 877 µM and 924 µM in [8]. Further, the TGI in experiment [6] is 2990 µM and 3550 µM; in experiment [9] it was 576 µM and 792 µM.

For the molecule `Cc1cccc2c3c(sc12)C(c1ccc(Cl)cc1)C(C#N)=C(N)O3` (configuration not stated), the GI50 in [7] was 0.295 µM; in experiment [1] it was 3.59 µM; in experiment [2] it was 0.541 µM; in [3] it was 0.435 µM; in experiment [4], 0.643 µM; in [8] it was 0.452 µM. Further, the results for the GI50 in [6] and in experiment [9] were 0.653 µM and 0.382 µM, respectively. Besides, the TGI in experiment [7] is 14.5 µM; in experiment [1], 27.2 µM; in [2], 11.5 µM; in [3], 4.52 µM; in [4], 13.3 µM; in [8] it was more than 33.9 µM. The TGI in [6] is 20 µM; in experiment [9], 32.1 µM.
